Source: ChEMBL document CHEMBL1201862, “PubChem BioAssay data set” (2004)
Calls of active or inactive are those of the source. No stated cut-off is given here; in the data, actives have a measured IC50 and inactives only a lower limit.

Molecular target: Envelope glycoprotein gp160 (Human immunodeficiency virus 1, UniProt Q6QLK5)
Experiment: cell-free HIV fusion peptide-binding blockers – biochemical, uHTS, fluorescence dequenching, […] (AID 1986)

Sequence of Envelope glycoprotein gp160 (Q6QLK5 whole entry, the tested form may be a part): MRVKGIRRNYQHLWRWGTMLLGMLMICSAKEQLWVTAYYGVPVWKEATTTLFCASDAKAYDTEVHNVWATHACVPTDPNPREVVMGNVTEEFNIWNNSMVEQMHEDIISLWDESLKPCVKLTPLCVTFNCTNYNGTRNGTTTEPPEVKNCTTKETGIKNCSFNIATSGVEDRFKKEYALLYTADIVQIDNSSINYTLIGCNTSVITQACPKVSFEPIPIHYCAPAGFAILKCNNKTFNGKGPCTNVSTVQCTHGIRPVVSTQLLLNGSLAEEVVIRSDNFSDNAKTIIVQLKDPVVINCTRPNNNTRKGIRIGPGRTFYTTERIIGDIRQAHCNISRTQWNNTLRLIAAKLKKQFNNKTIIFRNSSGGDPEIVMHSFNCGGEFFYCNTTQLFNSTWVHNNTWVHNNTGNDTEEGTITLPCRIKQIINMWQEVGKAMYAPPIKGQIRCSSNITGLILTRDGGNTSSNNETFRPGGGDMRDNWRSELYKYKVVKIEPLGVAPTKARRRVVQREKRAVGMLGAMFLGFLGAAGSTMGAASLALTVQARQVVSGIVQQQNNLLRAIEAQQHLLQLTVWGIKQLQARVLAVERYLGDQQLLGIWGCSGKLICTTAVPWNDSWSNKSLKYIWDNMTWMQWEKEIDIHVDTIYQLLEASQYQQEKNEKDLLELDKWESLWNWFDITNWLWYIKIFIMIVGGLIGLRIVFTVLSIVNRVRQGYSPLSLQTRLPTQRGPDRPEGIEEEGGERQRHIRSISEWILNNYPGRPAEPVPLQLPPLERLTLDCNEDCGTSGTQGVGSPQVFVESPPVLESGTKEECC

Row | Structure (SMILES) | IC50
1 | COc1cccc(NS(=O)(=O)c2ccc3c(c2)C2C=CCC2C(c2ccc(C(=O)O)cc2)N3)c1 (stereo not drawn) | 11.9 µM (active)
2 | COc1ccc(-c2nn(-c3ccccc3)cc2/C=C2/SC(=S)N(CCC(=O)O)C2=O)c(C)c1 | 12.5 µM (active)
3 | CCS(=O)(=O)C1=NN2C(=N)/C(=C\c3ccc(OCCOc4cccc(OC)c4)c(OC)c3)C(=O)N=C2S1 | 9.24 µM (active)
